These results are taken from ChEMBL document CHEMBL5223080, “Discovery of Pyrrole-imidazole Polyamides as PD-L1 Expression Inhibitors and Their Anticancer Activity via Immune and Nonimmune Pathways” (J Med Chem, 2021).

The nature of series [1]: (§1) Induction of T-cell mediated cytotoxicity against human HCC827 cells co-cultured with Jurkat cells assessed as apoptotic cells at 8 uM incubated for 36 hrs by standard CCK-8 assay relative to control. The class given is functional. (Tetrazolium dyes change colour on reduction, which living cells bring about.)
Series [2] in a line: (§2) Induction of T-cell mediated cytotoxicity against human MDA-MB-231 cells co-cultured with Jurkat cells assessed as apoptotic cells at 8 uM incubated for 36 hrs by standard CCK-8 assay relative to control. The class given is functional.
In series [3] the test system is MDA-MB-231. In words: Cytotoxicity against human MDA-MB-231 cells incubated for 36 hrs by standard CCK-8 assay. The note with it: for IC50: MDA-MB-231, 36 h. It is filed as functional, cell-based.
Series [4] deals with HCC827. The experiment in a line: Cytotoxicity against human HCC827 cells incubated for 36 hrs by standard CCK-8 assay. The class given is functional, cell-based. The note with it: for IC50: HCC827, 36 h.
The subject of series [5] is Jurkat. The experiment in a line: Cytotoxicity against human Jurkat cells at 8 uM incubated for 36 hrs by standard CCK-8 assay. The class given is toxicity, cell-based.
The test system of series [6] is dsDNA. In words: Binding affinity to human wild-type double stranded DNA assessed as thermal stability of compound-DNA complex by measuring change in melting temperature at stoichiometry ratio 1:4 by UV melting assay. It is filed as nucleic-acid assay.
Series [7] concerns HCC827. Described as §1. It is filed as functional.
For series [8], the system named is MRC5. The experiment in a line: Cytotoxicity against human MRC5 cells at 32 uM by standard CCK-8 assay. The class given is toxicity, cell-based. The following applies: mrc5, 32 µM.
In series [9] the test system is MDA-MB-231. The description is as §2. The class given is functional.
The nature of series [10]: Binding affinity to human single stranded DNA (unknown origin) by electrophoretic mobility shift assay. A general note: A gel shift assay detects complexes by their altered migration in electrophoresis.
Series [11] deals with MDA-MB-231. In words: Induction of T-cell mediated cell killing in human MDA-MB-231 cells co-cultured with PMA-activated Jurkat T cells assessed as IL-2 production at 8 uM by ELISA relative to control. It is filed as functional. For orientation: An ELISA detects its analyte on a solid surface through an enzyme-linked reagent.
Series [12] has as its system HCC827. The experiment in a line: Induction of T-cell mediated cell killing in human HCC827 cells co-cultured with PMA-activated Jurkat T cells assessed as IL-2 production at 8 uM by ELISA relative to control. It is filed as functional.
Series [13] can be described thus: Binding affinity to DNA STAT3 binding site of PD-L1 promoter region (unknown origin) by electrophoretic mobility shift assay.
In series [14] the test system is dsDNA. The experiment in a line: Binding affinity to human wild-type double stranded DNA assessed as thermal stability of compound-DNA complex by measuring change in melting temperature at stoichiometry ratio 1:1 by UV melting assay. The class given is nucleic-acid assay.
Series [15] deals with MDA-MB-231. The experiment in a line: Inhibition of PD-L1 protein expression in IFNgamma-induced human MDA-MB-231 cells measured for 36 hrs by Western blot analysis. It is filed as functional, cell-based. The following applies: dose 1.25-10 µM.
In series [16] the test system is MDA-MB-231. In words: Antitumour activity against human MDA-MB-231 cells assessed as measuring interleukin-2 levels by ELISA. The class given is functional.
For series [17], the species on record is Homo sapiens. The experiment in a line: Binding affinity to DNA STAT3 binding site of PD-L1 promoter region assessed as effect on binding of STAT3 protein to STAT3 binding site of PD-L1 promoter region by competitive electrophoretic mobility shift assay.
Series [18] deals with dsDNA. The experiment in a line: Binding affinity to human wild-type double stranded DNA assessed as thermal stability of compound-DNA complex by measuring change in melting temperature at stoichiometry ratio 1:0.5 by UV melting assay. It is filed as nucleic-acid assay.
Series [19] concerns HCC827. The experiment in a line: Inhibition of PD-L1 protein expression in IFNgamma-induced human HCC827 cells measured for 36 hrs by Western blot analysis. The class given is functional, cell-based. The following applies: dose 1.25-10 µM.
For series [20], the system named is HCC827. The experiment in a line: Antitumour activity against human HCC827 cells assessed as measuring interleukin-2 levels by ELISA. The class given is functional.

The source made the active and inactive calls. The calls are words filed in the database; no cut-off is given here.

`COc1nc(OCc2cccc(-c3ccccc3)c2C)ccc1CNCCNC(C)=O`: the Activity in series [1] was 70.87%; in series [2] it was 87.58%. The IC50 is 7.92 µM in [3] and 8.41 µM in series [4].
On to `CC(=O)Nc1cc(C(=O)Nc2cc(C(=O)Nc3cc(C(=O)Nc4cn(C)c(C(=O)NCCC(=O)Nc5cn(C)c(C(=O)NCCCC(=O)Nc6cc(C(=O)Nc7cc(C(=O)NCCC(=O)Nc8cn(C)c(C(=O)Nc9cn(C)c(C(=O)Nc%10cc(C(=O)NCCC(=O)NCCCN(C)C)n(C)c%10)n9)n8)n(C)c7)n(C)c6)n5)n4)n(C)c3)n(C)c2)n(C)c1.Cl`, for which the Activity result in series [5] and in series [8] was “Non-Toxic” in each case. The figures for the ΔTm in series [6], in series [14] and in series [18] were 0.7 °C, 0.4 °C and 0.2 °C, respectively. The result in [7], in series [9], in [10], in series [11], in [12] and in series [3] (dose 2-32 µM) was inactive. The outcome in series [13], in series [16], in series [17], in series [4] (dose 2-32 µM) and in [20] was inactive. Besides, the IC50 in series [3] and in series [4] was > 200 µM each time. Further, the inhibition result in series [15] and in [19] was “inactive” each time.

Usually IC50 stands for the point on the concentration scale where inhibition reaches its midpoint. Low readings indicate greater potency in that assay, high ones weaker potency in that assay. One may read the ΔTm as the shift of the melting midpoint relative to a reference.
